Assay results taken from patent US9932341B2, “Use of pyrazolopyrimidine derivatives for the treatment of PI3K-delta related disorders” (Incyte Corporation, priority 2013, dated 2018).
Where a name gives a salt, the structure may show the parent alone.

Target: PI3Kδ (p110δ/p85α) (Homo sapiens (Human), UniProt O00329)
Assay: PI3Kδ Scintillation Proximity Assay (Example A3)
Format: biochemical
Conditions: 20 μM ATP, 20 μM PIP2, 4 nM PI3Kδ, read-out: PI3Kδ SPA IC50
How it was run: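 SPA with 4 nM p110δ/p85α, 20 μM PIP2, 20 μM ATP plus [γ-^33P]ATP, in 20 mM MOPS pH 6.7, 10 mM MgCl2, 5 mM DTT, 0.03% CHAPS, 0.5% DMSO, room temperature. Stopped with EDTA/ATP, WGA SPA beads, overnight shaking, scintillation counting. IC50 from % control activity vs log concentration.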

PI3Kδ (p110δ/p85α), sequence (O00329 whole entry): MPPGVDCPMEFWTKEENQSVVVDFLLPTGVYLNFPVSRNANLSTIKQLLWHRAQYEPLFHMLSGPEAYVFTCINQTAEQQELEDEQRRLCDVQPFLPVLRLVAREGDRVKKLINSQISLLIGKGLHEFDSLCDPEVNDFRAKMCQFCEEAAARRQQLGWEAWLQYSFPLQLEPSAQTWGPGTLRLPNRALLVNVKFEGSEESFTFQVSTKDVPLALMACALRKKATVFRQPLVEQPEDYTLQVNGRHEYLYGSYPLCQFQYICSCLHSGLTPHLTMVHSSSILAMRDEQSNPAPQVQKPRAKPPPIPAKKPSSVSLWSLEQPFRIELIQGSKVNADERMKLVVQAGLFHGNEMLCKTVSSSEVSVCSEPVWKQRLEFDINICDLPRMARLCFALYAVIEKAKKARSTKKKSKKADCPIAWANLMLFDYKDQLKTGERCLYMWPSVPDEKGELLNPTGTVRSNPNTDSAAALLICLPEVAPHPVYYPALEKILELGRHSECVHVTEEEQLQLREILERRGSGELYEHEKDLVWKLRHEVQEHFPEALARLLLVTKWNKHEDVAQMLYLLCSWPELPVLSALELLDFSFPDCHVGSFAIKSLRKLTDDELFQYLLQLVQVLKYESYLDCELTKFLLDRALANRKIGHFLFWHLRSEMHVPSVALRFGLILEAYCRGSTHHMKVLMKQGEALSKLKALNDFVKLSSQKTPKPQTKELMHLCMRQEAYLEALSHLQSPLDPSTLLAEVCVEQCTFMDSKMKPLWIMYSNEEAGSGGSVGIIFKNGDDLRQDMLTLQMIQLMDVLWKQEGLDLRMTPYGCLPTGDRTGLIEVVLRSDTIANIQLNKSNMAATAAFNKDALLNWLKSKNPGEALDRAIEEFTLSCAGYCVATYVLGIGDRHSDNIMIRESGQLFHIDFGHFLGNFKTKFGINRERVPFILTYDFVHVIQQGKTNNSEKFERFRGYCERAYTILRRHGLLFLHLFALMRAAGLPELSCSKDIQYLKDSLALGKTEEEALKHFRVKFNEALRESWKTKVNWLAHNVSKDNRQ
PI3Kδ (p110δ/p85α), sequence (P27986 whole entry partner): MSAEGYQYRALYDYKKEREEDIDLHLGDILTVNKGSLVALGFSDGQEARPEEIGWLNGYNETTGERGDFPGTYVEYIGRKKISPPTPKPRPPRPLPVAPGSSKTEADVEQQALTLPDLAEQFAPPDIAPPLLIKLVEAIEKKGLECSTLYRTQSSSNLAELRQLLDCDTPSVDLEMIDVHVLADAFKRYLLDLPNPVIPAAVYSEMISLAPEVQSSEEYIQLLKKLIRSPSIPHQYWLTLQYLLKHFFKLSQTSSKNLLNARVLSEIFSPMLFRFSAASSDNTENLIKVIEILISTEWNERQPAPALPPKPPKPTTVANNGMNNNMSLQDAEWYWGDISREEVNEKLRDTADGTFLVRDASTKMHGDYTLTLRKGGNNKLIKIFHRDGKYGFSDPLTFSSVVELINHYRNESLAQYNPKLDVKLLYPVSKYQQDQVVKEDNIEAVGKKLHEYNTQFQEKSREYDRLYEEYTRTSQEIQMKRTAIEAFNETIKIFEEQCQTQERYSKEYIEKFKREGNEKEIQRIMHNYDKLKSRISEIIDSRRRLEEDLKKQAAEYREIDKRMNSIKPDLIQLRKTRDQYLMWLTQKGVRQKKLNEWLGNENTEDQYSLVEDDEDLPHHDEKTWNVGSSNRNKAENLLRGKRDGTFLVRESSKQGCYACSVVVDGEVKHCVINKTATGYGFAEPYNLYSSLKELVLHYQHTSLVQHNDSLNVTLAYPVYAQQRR

Structure (SMILES) | IC50 [nM]
CCOc1c(C(C)n2nc(C)c3c(N)ncnc32)cc(Cl)c(F)c1C1CN(CC(F)(F)F)C1 (racemic) [Example 141, 1-(1-{5-Chloro-2-ethoxy-4-fluoro-3-[1-(2,2,2-trifluoroethyl)azetidin-3-yl]phenyl}ethyl)-3-methyl-1H-pyrazolo[3,4-d]pyrimidin-4-amine] | < 10
COC(=O)N1CC(c2c(C#N)c(Cl)cc(C(C)n3nc(C)c4c(N)ncnc43)c2OC)C1 (single isomer, unassigned) [Example 289, Methyl 3-{3-[1-(4-amino-3-methyl-1H-pyrazolo[3,4-d]pyrimidin-1-yl)ethyl]-5-chloro-6-cyano-2-methoxyphenyl}azetidine-1-carboxylate] | < 10
COc1c(C(C)n2nc(C)c3c(N)ncnc32)cc(Cl)c(C)c1-c1cncc(C(=O)N(C)C)c1 (single isomer, unassigned) [Example 65, 5-{3-[1-(4-amino-3-methyl-1H-pyrazolo[3,4-d]pyrimidin-1-yl)ethyl]-5-chloro-2-methoxy-6-methylphenyl}-N,N-dimethylnicotinamide] | < 10
COc1c(C(C)n2nc(C)c3c(N)ncnc32)cc(Cl)c(C)c1C1CN(C(=O)[C@@H](C)O)C1 (single isomer, unassigned) [Example 121, trifluoroacetate] | < 10
CCOc1c(C(C)n2nc(C)c3c(N)ncnc32)cc(Cl)c(C#N)c1C1CN(C(C)(C)C(=O)OC(C)(C)C)C1 (single isomer, unassigned) [Example 236, tert-Butyl 2-(3-{3-[1-(4-amino-3-methyl-1H-pyrazolo[3,4-d]pyrimidin-1-yl)ethyl]-5-chloro-6-cyano-2-ethoxyphenyl}azetidin-1-yl)-2-methylpropanoate] | < 10
COc1c(C(C)n2nc(C)c3c(N)ncnc32)cc(Cl)c(C)c1-c1ccc(C(=O)NCCO)nc1 (stereo not shown) [Example 23, 5-(3-(1-(4-amino-3-methyl-1H-pyrazolo[3,4-d]pyrimidin-1-yl)ethyl)-5-chloro-2-methoxy-6-methylphenyl)-N-(2-hydroxyethyl)picolinamide trifluoroacetate] | < 10
COc1c(C(C)n2nc(C)c3c(N)ncnc32)cc(Cl)c(C)c1C1CN([C@H](C)C(=O)N(C)C)C1 (stereo partly drawn) [Example 159, (2R)-2-(3-{3-[1-(4-Amino-3-methyl-1H-pyrazolo[3,4-d]pyrimidin-1-yl)ethyl]-5-chloro-2-methoxy-6-methylphenyl}azetidin-1-yl)-N,N-dimethylpropanamide] | < 10
CCOc1c(C(C)n2nc(C)c3c(N)ncnc32)cc(Cl)c(C)c1-c1ccc(C(=O)N(C)C)cn1 (stereo not shown) [Example 208, 6-{3-[1-(4-Amino-3-methyl-1H-pyrazolo[3,4-d]pyrimidin-1-yl)ethyl]-5-chloro-2-ethoxy-6-methylphenyl}-N,N-dimethylnicotinamide bis(trifluoroacetate)] | < 10
COc1c(C(C)n2nc(C)c3c(N)ncnc32)cc(Cl)c(F)c1C1CN(C)C1 (stereo not shown) [Example 72] | < 10
COc1c(C(C)n2nc(C)c3c(N)ncnc32)cc(Cl)c(C#N)c1C1CN(C[C@H](C)O)C1 (stereo partly drawn) [Example 269, 4-[1-(4-Amino-3-methyl-1H-pyrazolo[3,4-d]pyrimidin-1-yl)ethyl]-6-chloro-2-{1-[(2S)-2-hydroxypropyl]azetidin-3-yl}-3-methoxybenzo nitrile] | < 10
CCC(C)N1CC(c2c(C)c(Cl)cc(C(C)n3nc(C)c4c(N)ncnc43)c2OC)C1 (stereo not shown) [Example 8, 1-{1-[3-(1-sec-butylazetidin-3-yl)-5-chloro-2-methoxy-4-methylphenyl]ethyl}-3-methyl-1H-pyrazolo[3,4-d]pyrimidin-4-amine] | < 10
CNC(=O)c1ccc(-c2c(C)c(Cl)cc(C(C)n3nc(C)c4c(N)ncnc43)c2OC)cc1F (single isomer, unassigned) [Example 22, 3′-[1-(4-Amino-3-methyl-1H-pyrazolo[3,4-d]pyrimidin-1-yl)ethyl]-5′-chloro-3-fluoro-2′-methoxy-N,6′-dimethylbiphenyl-4-carboxamide trifluoroacetate] | < 10
COc1c(C(C)n2nc(C)c3c(N)ncnc32)cc(Cl)c(C)c1C1CN(CC(C)(C)O)C1 (single isomer, unassigned) [Example 158, 1-(3-{3-[1-(4-Amino-3-methyl-1H-pyrazolo[3,4-d]pyrimidin-1-yl)ethyl]-5-chloro-2-methoxy-6-methylphenyl}azetidin-1-yl)-2-methylpropan-2-ol] | < 10
COc1c(C(C)n2nc(C)c3c(N)ncnc32)cc(Cl)c(C)c1C1CN([C@H](C)CO)C1 (stereo partly drawn) [Example 156, (2R)-2-(3-{3-[1-(4-Amino-3-methyl-1H-pyrazolo[3,4-d]pyrimidin-1-yl)ethyl]-5-chloro-2-methoxy-6-methylphenyl}azetidin-1-yl)propan-1-ol] | < 10
COc1c(C(C)n2nc(C)c3c(N)ncnc32)cc(Cl)c(C)c1C1CN(CC#N)C1 (single isomer, unassigned) [Example 105, (3-{3-[1-(4-Amino-3-methyl-1H-pyrazolo[3,4-d]pyrimidin-1-yl)ethyl]-5-chloro-2-methoxy-6-methylphenyl}azetidin-1-yl)acetonitrile] | < 10
COc1c(C(C)n2nc(C)c3c(N)ncnc32)cc(Cl)c(C)c1C1CN(CC2CC2)C1 (racemic) [Example 4, 1-(1-{5-Chloro-3-[1-(cyclopropylmethyl)azetidin-3-yl]-2-methoxy-4-methylphenyl}ethyl)-3-methyl-1H-pyrazolo[3,4-d]pyrimidin-4-amine bis(trifluoroacetate)] | < 10
COc1c(C(C)n2nc(C)c3c(N)ncnc32)cc(Cl)c(C)c1-c1ccc(C(=O)N(C)C)c(F)c1 (single isomer, unassigned) [Example 21, 3′-[1-(4-Amino-3-methyl-1H-pyrazolo[3,4-d]pyrimidin-1-yl)ethyl]-5′-chloro-3-fluoro-2′-methoxy-N,N,6′-trimethylbiphenyl-4-carboxamide trifluoroacetate] | < 10
COc1c(C(C)n2nc(C)c3c(N)ncnc32)cc(Cl)c(C#N)c1C1CN(S(C)(=O)=O)C1 (single isomer, unassigned) [Example 285, 4-[1-(4-Amino-3-methyl-1H-pyrazolo[3,4-d]pyrimidin-1-yl)ethyl]-6-chloro-3-methoxy-2-[1-(methylsulfonyl)azetidin-3-yl]benzonitrile] | < 10
COc1c(C(C)n2nc(C)c3c(N)ncnc32)cc(Cl)c(C#N)c1C1CN(C(C)=O)C1 (single isomer, unassigned) [Example 281, 2-(1-Acetylazetidin-3-yl)-4-[1-(4-amino-3-methyl-1H-pyrazolo[3,4-d]pyrimidin-1-yl)ethyl]-6-chloro-3-methoxybenzonitrile] | < 10
COc1c(C(C)n2nc(C)c3c(N)ncnc32)cc(Cl)c(C)c1-c1ccc(OCCO)nc1 (single isomer, unassigned) [Example 188, 2-(5-(3-(1-(4-Amino-3-methyl-1H-pyrazolo[3,4-d]pyrimidin-1-yl)ethyl)-5-chloro-2-methoxy-6-methylphenyl)pyridin-2-yloxy)ethanol] | < 10

Tested on: Pfeiffer cell line (diffuse large B cell lymphoma)
Assay: Pfeiffer Cell Proliferation Assay (Example B2)
Format: cell-based, human
Conditions: not given
Method: Pfeiffer cell line (diffuse large B cell lymphoma) are purchased from ATCC (Manassas, Va.) and maintained in the culture medium recommended (RPMI and 10% FBS). To measure the anti-proliferation activity of the compounds, the Pfeiffer cells are plated with the culture medium (2×10^3 cells well per […]) into 96-well ultra-low binding plates (Corning, Corning, N.Y.), in the presence or absence of a concentration range of test compounds. After 3-4 days, [^3H]-thymidine (1 μCi/well) (PerkinElmer, Boston, Mass.) in PBS is then added to the cell culture for an additional 12 hours before the incorporated radioactivity is separated by filtration with water through GF/B filters (Packard Bioscience, Meriden, Conn.) and measured by liquid scintillation counting with a TopCount (Packard Bioscience).

Structure (SMILES) | anti-proliferative effects in vitro on Pfeiffer cancer cells
CCOc1c(C(C)n2nc(C)c3c(N)ncnc32)cc(Cl)c(F)c1C1CNC(=O)C1 (single isomer, unassigned) [Example 347, 4-{3-[1-(4-amino-3-methyl-1H-pyrazolo[3,4-d]pyrimidin-1-yl)ethyl]-5-chloro-2-ethoxy-6-fluorophenyl}pyrrolidin-2-one] | sensitive

Tested on: Pfeiffer human tumor xenograft model of diffuse large B-cell lymphoma
Assay: Pfeiffer Model of Lymphoma (Example D)
Format: in vivo
Conditions: 0.3 mg/kg oral twice daily for 14 days, SCID mice
Method: Female SCID mice, (5 to 8 weeks of age, Charles River Laboratories, Wilmington, Mass.) were inoculated with 1×10^7 tumor cells (Pfeiffer, ATCC #CRL-2632, Manassas, Va.) and matrigel (BD Biosciences #354234) in 0.2 mL sterile saline. The inoculation was performed subcutaneously on the flank. Tumor tissue fragments (approximately 3 mm×3 mm) were collected 3 to 6 weeks after the inoculation of cultured cells and implanted subcutaneously in lieu of cellular inoculation. Tissue fragments were implanted as solid pieces using blunt-tip forceps. The treatment of tumor bearing mice was started 15 to 25 days after tumor inoculation, depending upon the tumor size. Animals were sorted to obtain roughly equivalent mean tumor volumes in each group. Minimum mean tumor volume in all groups was 150 mm3 on the first day of treatment and groups consisted of 7 animals. Experimental therapeutic agent, Example 347, was administered to mice orally (PO). Treatment frequency was 2 times daily for a minimum of 14 days for efficacy. The size of subcutaneous tumors was measured 2 to 3 times weekly using a digital caliper. The tumor volume was calculated by measuring the tumor in 2 dimensions and utilizing the equation: Volume=[Length×(Width2)]/2; where the larger number was length, and the smaller number width. If multiple tumors were formed, the final volume was the sum of the individual tumors subject to the same equation: eg, 2 tumors; Volume={[L1×(W1)2]/2}+{[L2×(W2)2]/2}. Effects on tumor growth were reported as percent tumor growth inhibition (% TGI). Percent TGI was calculated with the equation: (1−(Tx vol./control vol.))*100, where control volume was the vehicle or untreated tumor volume on a given day, and Tx volume was any treatment group tumor volume on that same day. Statistical differences between treatment and vehicle controls were assessed using ANOVA: Single Factor test.

Structure (SMILES) | percent tumor growth inhibition [%]
CCOc1c(C(C)n2nc(C)c3c(N)ncnc32)cc(Cl)c(F)c1C1CNC(=O)C1 (single isomer, unassigned) [Example 347, 4-{3-[1-(4-amino-3-methyl-1H-pyrazolo[3,4-d]pyrimidin-1-yl)ethyl]-5-chloro-2-ethoxy-6-fluorophenyl}pyrrolidin-2-one] | 22

Same assay, conditions: 1 mg/kg oral twice daily for 14 days, SCID mice

Structure (SMILES) | percent tumor growth inhibition [%]
CCOc1c(C(C)n2nc(C)c3c(N)ncnc32)cc(Cl)c(F)c1C1CNC(=O)C1 (single isomer, unassigned) [Example 347, 4-{3-[1-(4-amino-3-methyl-1H-pyrazolo[3,4-d]pyrimidin-1-yl)ethyl]-5-chloro-2-ethoxy-6-fluorophenyl}pyrrolidin-2-one] | 24

Same assay, conditions: 3 mg/kg oral twice daily for 14 days, SCID mice

Structure (SMILES) | percent tumor growth inhibition [%]
CCOc1c(C(C)n2nc(C)c3c(N)ncnc32)cc(Cl)c(F)c1C1CNC(=O)C1 (single isomer, unassigned) [Example 347, 4-{3-[1-(4-amino-3-methyl-1H-pyrazolo[3,4-d]pyrimidin-1-yl)ethyl]-5-chloro-2-ethoxy-6-fluorophenyl}pyrrolidin-2-one] | 36

Same assay, conditions: 10 mg/kg oral twice daily for 14 days, SCID mice

Structure (SMILES) | percent tumor growth inhibition [%]
CCOc1c(C(C)n2nc(C)c3c(N)ncnc32)cc(Cl)c(F)c1C1CNC(=O)C1 (single isomer, unassigned) [Example 347, 4-{3-[1-(4-amino-3-methyl-1H-pyrazolo[3,4-d]pyrimidin-1-yl)ethyl]-5-chloro-2-ethoxy-6-fluorophenyl}pyrrolidin-2-one] | 58
